Measured values taken from patent US20080096929A1, “Novel Use” (ASTRAZENECA AB, priority 2004, published 2008).

Molecular target: T1, human MPO (Homo sapiens, UniProt P05164)
T1 sequence (P05164 49-745): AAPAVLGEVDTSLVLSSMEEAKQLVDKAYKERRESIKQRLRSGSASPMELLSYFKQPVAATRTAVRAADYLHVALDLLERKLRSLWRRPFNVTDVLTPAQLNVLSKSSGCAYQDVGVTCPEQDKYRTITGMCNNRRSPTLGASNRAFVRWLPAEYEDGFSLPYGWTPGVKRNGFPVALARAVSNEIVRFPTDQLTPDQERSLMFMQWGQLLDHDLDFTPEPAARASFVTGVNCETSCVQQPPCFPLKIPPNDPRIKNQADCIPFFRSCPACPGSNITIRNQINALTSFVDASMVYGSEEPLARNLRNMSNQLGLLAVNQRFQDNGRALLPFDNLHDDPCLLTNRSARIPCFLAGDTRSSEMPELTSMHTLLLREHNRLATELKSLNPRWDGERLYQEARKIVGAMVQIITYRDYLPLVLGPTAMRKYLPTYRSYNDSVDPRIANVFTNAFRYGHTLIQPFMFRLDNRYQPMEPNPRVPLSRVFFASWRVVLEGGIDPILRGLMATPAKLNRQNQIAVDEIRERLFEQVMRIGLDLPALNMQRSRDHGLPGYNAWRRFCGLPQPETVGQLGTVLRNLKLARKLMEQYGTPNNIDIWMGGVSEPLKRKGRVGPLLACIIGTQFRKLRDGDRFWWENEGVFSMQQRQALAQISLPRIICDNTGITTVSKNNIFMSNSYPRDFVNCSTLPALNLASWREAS
Experiment: MPO inhibition screen (TMB oxidation, absorbance)
Type: biochemical
Conditions: in the presence of tyrosine (final 8 μM); human MPO 2.5 nM; H2O2 100 μM
Procedure: Methods for the determination of MPO inhibitory activity are disclosed in patent application WO 02/090575. The pharmacological activity of compounds according to the invention was tested in the following screen in which the compounds were either tested alone or in the presence of added tyrosine:
Assay buffer: 20 mM sodium/potassium phosphate buffer pH 6.5 containing 10 mM taurine and 100 mM NaCl.
Developing reagent: 2 mM 3,3′,5,5′-tetramethylbenzidine (TMB), 200 μM KI, 200 mM acetate buffer pH 5.4 with 20% DMF.
To 10 μl of diluted compounds in assay buffer, 40 μl of human MPO (final concentration 2.5 nM), with or without 20 μM tyrosine (final concentration, if present, 8 μM), was added and the mixture was incubated for 10 minutes at ambient temperature. Then 50 μl of H2O2 (final concentration 100 μM), or assay buffer alone as a control, were added. After incubation for 10 minutes at ambient temperature, the reaction was stopped by adding 10 μl 0.2 mg/ml of catalase (final concentration 18 μg/ml). The reaction mixture was left for an additional 5 minutes before 100 μl of TMB developing reagent was added. The amount of oxidised 3,3′,5,5′-tetramethylbenzidine formed was then measured after about 5 minutes using absorbance spectroscopy at about […]. IC50 values were then determined using standard procedures.

| IC50 [µM] | SMILES |
| --- | --- |
| 6.73 | S=c1[nH]nc(Cc2ccccn2)n1C1CC2C=CC1C2 (stereo not drawn) [Example 4, 4-(Bicyclo[2.2.1]hept-5-en-2-yl)-5-pyridin-2-ylmethyl-2,4-dihydro-[1,2,4]triazole-3-thione] |
| 7.2 | S=c1[nH]nc(Cc2ccccn2)n1C1CCN(Cc2ccccc2)C1 (stereo not drawn) [Example 5, 4-(1-Benzyl-pyrrolidin-3-yl)-5-pyridin-2-ylmethyl-2,4-dihydro-[1,2,4]triazole-3-thione] |
| 3.59 | O[C@@H]1CCCC[C@H]1n1c(COc2ccccc2Cl)n[nH]c1=S (relative stereo) [Example 2, 5-(2-Chloro-phenoxymethyl)-4-(trans-2-hydroxycyclohexyl)-2,4-dihydro-[1,2,4]triazole-3-thione] |
